Columns and labels:
[1] = system: RD; assay: MTT cytotoxic/antiproliferative activity, 72 h; type: cell-based, human; conditions: for IC50: MTT, 72 h
[2] = target: T1, ALK (Homo sapiens, UniProt Q9HC35+Q9UM73); assay: Western blot of ALK phosphorylation state; type: cell-based; conditions: NCI-H2228 lysates, IC50 concentrations, 24 h
T1 construct: Western blot detection of the ALK phosphorylation state in lysates of NCI-H2228 cells exposed to the tested compounds; endogenous in cells; host or cells: NCI-H2228
Procedure: (§1) Whereas the signals of pALK and pMET are decreased in the presence of the tested compounds, the overall amount of ALK and MET is not markedly changed.
(§2) NCI-H2228 cells were seeded in 6-well plates at a density of 2 × 10^5 cells/well and incubated overnight. […] The cells were then harvested and lysed using RIPA lysis buffer supplemented with protease and phosphatase inhibitors as recommended by the manufacturer. Protein extracts were resolved with SDS-PAGE, transferred to a PVDF membrane, and the respective proteins were detected with specific antibodies (anti-phosphoALK, anti-ALK, anti-phosphoMET, anti-MET, and anti-GADPH) and HRP-conjugated secondary antibodies. The signals were obtained with SignalFire ECL Reagent and recorded with an Amersham680 reader.

[3] = target: T2, MET (Homo sapiens, UniProt P08581); assay: Western blot of MET phosphorylation state; type: cell-based; conditions: NCI-H2228 lysates, IC50 concentrations, 24 h
T2 construct: Western blot analysis of the phosphorylation state of ALK and MET; endogenous in cells; host or cells: NCI-H2228
Procedure: as §1, §2

[4] = system: CT26 or NCI-H2228 cells; assay: Release of ATP (CLSII bioluminescence assay); type: cell-based; conditions: IC50 concentrations, 20 h
Procedure: ATP release was analyzed using the CLSII bioluminescence assay kit (Roche) after treatment of CT26 or NCI-H2228 cells with the tested compounds at concentrations corresponding to their respective IC50 values (Figure A).
CT26 and NCI-H2228 cells were seeded in 48-well plates at a density of 5 × 10^4 cells/well and grown overnight. […] Then 50 μL of supernatant from the wells was transferred into a 96-well white plate (Corning) and processed using an ATP bioluminescence assay kit CLSII following the manufacturer’s instructions. Luminescence was measured with a SPARK multimode reader (TECAN).

[5] = Stability in RPMI cell culture medium with serum (HPLC); conditions: serum
Procedure: Two conditions must be met for Pt(IV) complexes to serve as true prodrugs: they must remain stable in biological fluids and should be activated by reduction within the cancer cells to release the bioactive components in their active form, thereby facilitating the rapid onset of cytotoxic effects. […] The reduction in the area of the HPLC peak of the compounds was monitored as a function of time, and their half-lives were calculated (Table and Figures S26,S27).
The stock solutions were prepared by dissolving the compounds in a 1:9 (v/v) mixture of DMSO and RPMI media. After preparation, the samples were injected and stored at 37 °C throughout the experiment. The final concentration of the complexes used for the experiment is 50–60 μM.

[6] = Reduction by L-ascorbic acid in phosphate buffer (RP-HPLC); type: physicochemical
Procedure: The reduction of Pt(IV) complexes was performed by reacting with 10 equiv of L-ascorbic acid in 10% DMSO in 100 mM phosphate buffer (pH 7.4) at 37 °C, and was monitored by reverse-phase analytical HPLC. The half-lives for the reduction were calculated from the decreasing peak areas as a function of time.
The reduction of the Pt(IV) complexes was performed in the presence of 10 equiv of L-ascorbic acid (AA) in phosphate buffer (100 mM, pH 7.4) at 37 °C using reverse-phase analytical HPLC. […] The platinum complexes were dissolved in 10% DMSO with 50% MeOH and added to 100 mM phosphate buffer (pH 7.4). […] The samples were injected and stored at 37 °C throughout the experiment.

[7] = system: hepatocyte-like cells (HLC); assay: Cytotoxicity in hepatocyte-like cells, sulphorhodamine B assay; type: cell-based; conditions: hepatocyte-like cells from human pluripotent cells
Procedure: Growth inhibition activity in cancer cell lines was compared with the activity to inhibit the proliferation of normal (noncancerous) cells, namely MRC-5, IMR-90, hTERT-HPNE, and MCF10A cells. Selectivity indexes (SI) were calculated as (IC50 in noncancerous cells)/(average IC50 in cancer cells). […] We further assessed the toxicity of several of the compounds in hepatocyte-like cells (HLC) generated from human pluripotent cells.
Cytotoxicity in hepatocyte-like cells (HLC). STEMdiff Hepatocyte Kit was used to generate HLC from human pluripotent stem cells. Cytotoxicity of several of the tested compounds in HLC was evaluated using the sulphorhodamine B assay.

[8] = system: NCI-H2228 cells; assay: Cell death mode (Annexin V/PI, flow cytometry); type: cell-based, human; conditions: NCI-H2228, 3 × IC50, 48 h
Description: Flow cytometric analysis was used to assess the mode of cell death induced in NCI-H2228 cells by the tested complexes. Annexin V staining was employed to recognize the externalization of phosphatidyl serine, a feature considered an apoptotic marker. Propidium iodide (PI) was used to stain cells with compromised cell membranes (a sign of necrosis). Staurosporine was included in the experiment as a positive control for apoptosis. […] Apoptosis appears to be the leading mode of cell death in the entire group of tested compounds, with a varying distribution of cell populations between early and late apoptosis.
Staurosporine (4 μM; 2 h) was used as a positive control of apoptosis. The cells were then harvested with trypsin and stained with Annexin V-Pacific Blue conjugate (1:20 dilution) and PI (10 μg mL^–1) for 15 min. The samples were analyzed with flow cytometry (FACS Verse), 3 × 10^4 cells were analyzed following the exclusion of cell aggregates, and the data was analyzed with FCS Express 7 (DeNovo software, Glendale, CA).

[9] = system: CT26 cells; assay: Phagocytosis of treated CT26 cells by J774.A1 macrophages; type: cell-based, murine; conditions: CT26 treated at IC50 for 24 h, cocultivated 4 h, J774.A1:CT26 1:2
Procedure: Then, the cells in the samples were stained with CellTracker (red CMTPX; Thermo Fisher Scientific). At the same time, J774.A1 macrophages were stained with CellTracker (green CMFDA; ThermoFisher Scientific). […] Following the coincubation, the cells were harvested and analyzed with flow cytometry (BD FACS Verse). Total cell count was normalized to 3 × 10^4 macrophages. The data were analyzed with FCS Express 7 (DeNovo software; Glendale, CA).

T1 sequence (Q9HC35+Q9UM73 fused): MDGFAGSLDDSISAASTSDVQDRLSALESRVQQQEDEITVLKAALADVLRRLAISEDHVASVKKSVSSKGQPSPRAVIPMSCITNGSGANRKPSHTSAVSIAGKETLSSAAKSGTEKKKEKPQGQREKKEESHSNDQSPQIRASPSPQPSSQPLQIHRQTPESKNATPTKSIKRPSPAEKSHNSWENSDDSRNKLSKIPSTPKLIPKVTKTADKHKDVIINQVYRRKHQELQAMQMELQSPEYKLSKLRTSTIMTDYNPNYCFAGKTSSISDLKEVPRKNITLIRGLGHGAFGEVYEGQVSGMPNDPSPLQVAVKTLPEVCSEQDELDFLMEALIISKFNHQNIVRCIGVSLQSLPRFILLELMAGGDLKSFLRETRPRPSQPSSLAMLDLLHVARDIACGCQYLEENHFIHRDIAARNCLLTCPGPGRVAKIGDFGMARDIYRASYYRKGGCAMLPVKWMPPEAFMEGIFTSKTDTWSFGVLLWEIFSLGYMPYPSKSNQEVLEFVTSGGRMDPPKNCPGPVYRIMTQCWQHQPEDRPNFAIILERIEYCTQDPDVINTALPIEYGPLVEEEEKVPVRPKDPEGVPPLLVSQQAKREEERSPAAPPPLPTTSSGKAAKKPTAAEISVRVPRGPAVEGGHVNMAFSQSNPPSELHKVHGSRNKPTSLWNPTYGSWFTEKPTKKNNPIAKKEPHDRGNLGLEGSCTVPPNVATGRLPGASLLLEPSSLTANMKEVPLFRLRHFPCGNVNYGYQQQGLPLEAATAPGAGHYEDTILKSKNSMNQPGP
T2 sequence (P08581 25-1390): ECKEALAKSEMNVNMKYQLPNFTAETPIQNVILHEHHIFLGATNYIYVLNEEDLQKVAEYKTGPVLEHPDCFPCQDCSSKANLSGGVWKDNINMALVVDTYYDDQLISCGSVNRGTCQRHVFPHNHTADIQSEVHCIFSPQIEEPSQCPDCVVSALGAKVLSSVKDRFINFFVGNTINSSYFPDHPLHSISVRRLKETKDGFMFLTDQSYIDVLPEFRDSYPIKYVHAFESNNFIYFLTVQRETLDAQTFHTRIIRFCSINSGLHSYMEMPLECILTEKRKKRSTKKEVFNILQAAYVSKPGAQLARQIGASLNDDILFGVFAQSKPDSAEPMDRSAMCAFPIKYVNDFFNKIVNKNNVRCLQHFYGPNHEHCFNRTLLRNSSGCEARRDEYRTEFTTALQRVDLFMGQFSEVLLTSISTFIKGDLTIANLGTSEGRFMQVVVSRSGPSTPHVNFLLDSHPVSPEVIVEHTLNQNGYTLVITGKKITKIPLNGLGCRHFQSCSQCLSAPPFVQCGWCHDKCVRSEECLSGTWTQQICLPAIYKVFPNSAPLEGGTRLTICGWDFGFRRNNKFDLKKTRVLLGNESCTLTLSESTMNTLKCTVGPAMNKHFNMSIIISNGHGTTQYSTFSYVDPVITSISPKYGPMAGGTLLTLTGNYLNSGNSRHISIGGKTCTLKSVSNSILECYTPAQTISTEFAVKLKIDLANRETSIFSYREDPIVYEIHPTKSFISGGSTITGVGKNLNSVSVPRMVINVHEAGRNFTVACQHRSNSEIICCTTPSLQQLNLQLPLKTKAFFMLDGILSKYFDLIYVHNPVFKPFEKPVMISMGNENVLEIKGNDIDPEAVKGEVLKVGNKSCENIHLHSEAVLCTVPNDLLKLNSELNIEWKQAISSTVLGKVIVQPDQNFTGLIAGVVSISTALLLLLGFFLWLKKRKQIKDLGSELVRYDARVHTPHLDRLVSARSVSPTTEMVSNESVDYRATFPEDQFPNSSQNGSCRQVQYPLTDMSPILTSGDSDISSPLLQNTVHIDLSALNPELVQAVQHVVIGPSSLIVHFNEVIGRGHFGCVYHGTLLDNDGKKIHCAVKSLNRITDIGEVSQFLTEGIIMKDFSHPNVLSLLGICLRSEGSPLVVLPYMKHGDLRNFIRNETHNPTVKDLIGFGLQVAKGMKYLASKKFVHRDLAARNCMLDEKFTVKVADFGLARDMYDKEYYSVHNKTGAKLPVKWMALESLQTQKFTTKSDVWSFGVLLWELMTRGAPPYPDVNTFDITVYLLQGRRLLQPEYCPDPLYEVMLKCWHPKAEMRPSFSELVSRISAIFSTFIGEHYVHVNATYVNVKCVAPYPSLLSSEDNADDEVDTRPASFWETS

Structure (SMILES)	IC50 [1] [µM]	phosphorylation of ALK [2]	phosphorylation of MET [3]	ATP released to the medium relative to nontreated cells [4]	stability half-life (t 1/2) [5] [h]	reduction half-life (t 1/2) ([6]; 10 equiv L-ascorbic acid, 10% DMSO in 100 mM phosphate buffer pH 7.4, 37 °C) [h]	IC50 [7] [µM]	mode of cell death [8]	double-stained (phagocytotic) population [9]	solubility in phosphate buffer ([6]; 100 mM phosphate buffer pH 7.4)	IC50(MIX)/IC50(complex) ([1]; MIX3/3 or MIX7/7)
N.N.[Cl][Pt][Cl] [cisPt, cisplatin, reference compound]	7.3 ± 0.2	no visible effect	no visible effect	did not induce a significant release of ATP	–	–	–	–	–	–	–
CC(Oc1cc(-c2cnn(C3CCN(C(=O)[O][Pt]([Cl])([Cl])[O]C(=O)CCCc4ccccc4)CC3)c2)cnc1N)c1c(Cl)ccc(F)c1Cl.N.N (centres unmarked) [compound 3, ctc-[Pt(NH3)2(crizotinib)(PhB)Cl2]]	0.54 ± 0.07	–	–	–	42	7.7	5 ± 1	apoptotic phenotype	significantly increased	–	–
Cc1cc(Nc2ncc(Cl)c(Nc3ccccc3S(=O)(=O)C(C)C)n2)c(OC(C)C)cc1C1CCN(C(=O)[O][Pt]([Cl])([Cl])[O]C(=O)CCCc2ccccc2)CC1.N.N [compound 7, ctc-[Pt(NH3)2(ceritinib)(PhB)Cl2]]	0.35 ± 0.03	inhibit the phosphorylation	inhibit the phosphorylation	2.7 fold	37	–	4 ± 1	apoptotic phenotype	significantly increased	poor solubility	1.7

From PMC12670396, “Crizotinib- or Ceritinib-Conjugated Platinum(IV) Prodrugs As Potent Multiaction Agents Inducing Antiproliferative Effects in 2D and 3D Cancer Cell Models” (Journal of Medicinal Chemistry, 2025)
